Results taken from ChEMBL document CHEMBL4138122, “Azaphenothiazines - promising phenothiazine derivatives. An insight into nomenclature, synthesis, structure elucidation and biological properties” (Eur J Med Chem, 2017).
In brackets after ≈: the same amount, converted by molar mass.

Key:
Escherichia coli = assay: Antibacterial activity against Escherichia coli by CLSI protocol based method; type: functional
Aspergillus niger = assay: Antifungal activity against Aspergillus niger by CLSI protocol based method; type: functional
MCF7 [1] = assay: Growth inhibition of human MCF7 cells at 10 uM; type: functional; details: read-out: GI
T47D = assay: Growth inhibition of human T47D cells at 10 uM; type: functional; details: read-out: GI
UO-31 [2] = assay: Growth inhibition of human UO31 cells at 10 uM; type: functional; details: read-out: GI
[3] = Inhibition of LTB4 formation in rat polymorphonuclear leukocytes preincubated for 2 mins followed by A-23187 addition after 4 mins; type: functional, cell-based
Trachea [4] = assay: Inhibition of egg albumin antigen challenge-induced contraction response in methacholine-primed guinea pig trachea at 10 ug/ml; type: functional; details: Cavia porcellus
Rattus norvegicus = assay: Inhibition of PAF-induced hyperalgesia in Sprague-Dawley rat at 10 mg/kg, po dosed 30 mins prior to PAF challenge and measured 1 to 4 hours post PAF challenge; type: functional
UO-31 [5] = assay: Cytotoxicity against human UO31 cells assessed as cell growth inhibition at 2.1 ug/ml after 48 hrs by SRB assay; type: functional; details: UO-31, 48 h, read-out: GI
EKVX = assay: Cytotoxicity against human EKVX cells assessed as cell growth inhibition at 2.1 ug/ml after 48 hrs by SRB assay; type: functional, cell-based
[6] = tested on: Mycobacterium tuberculosis; assay: Antitubercular activity against Mycobacterium tuberculosis; type: functional
UO-31 [7] = assay: Cytotoxicity against human UO31 cells assessed as cell growth inhibition at 3.2 ug/ml after 48 hrs by SRB assay; type: functional; details: UO-31, 48 h, read-out: GI
HCT-116 [8] = assay: Cytotoxicity against human HCT116 cells assessed as cell growth inhibition after 48 hrs by SRB assay; type: functional, cell-based; details: HCT-116, 48 h
PC-3 [9] = assay: Cytotoxicity against human PC3 cells assessed as cell growth inhibition after 48 hrs by SRB assay; type: functional, cell-based; details: PC-3, 48 h
SK-MEL-5 = assay: Cytotoxicity against human SK-MEL-5 cells assessed as cell growth inhibition after 48 hrs by SRB assay; type: functional, cell-based; details: SK-MEL-5, 48 h
CCRF-CEM = assay: Cytotoxicity against human CCRF-CEM cells assessed as cell growth inhibition after 48 hrs by SRB assay; type: functional, cell-based
MOLT-4 = assay: Cytotoxicity against human MOLT4 cells assessed as cell growth inhibition after 48 hrs by SRB assay; type: functional, cell-based; details: MOLT-4, 48 h
SNB-75 = assay: Cytotoxicity against human SNB75 cells assessed as cell growth inhibition after 48 hrs by SRB assay; type: functional, cell-based; details: SNB-75, 48 h
SF-295 = assay: Cytotoxicity against human SF295 cells assessed as cell growth inhibition after 48 hrs by SRB assay; type: functional, cell-based; details: SF-295, 48 h
NCI-H460 = assay: Cytotoxicity against human NCI-H460 cells assessed as cell growth inhibition after 48 hrs by SRB assay; type: functional, cell-based; details: NCI-H460, 48 h
HOP-92 = assay: Cytotoxicity against human HOP92 cells assessed as cell growth inhibition after 48 hrs by SRB assay; type: functional, cell-based; details: HOP-92, 48 h
IGROV-1 = assay: Cytotoxicity against human IGROV1 cells assessed as cell growth inhibition after 48 hrs by SRB assay; type: functional, cell-based; details: IGROV-1, 48 h
OVCAR-4 = assay: Cytotoxicity against human OVCAR4 cells assessed as cell growth inhibition after 48 hrs by SRB assay; type: functional, cell-based; details: OVCAR-4, 48 h
OVCAR-5 = assay: Cytotoxicity against human OVCAR5 cells assessed as cell growth inhibition after 48 hrs by SRB assay; type: functional, cell-based; details: OVCAR-5, 48 h
786-0 = assay: Cytotoxicity against human 786-O cells assessed as cell growth inhibition after 48 hrs by SRB assay; type: functional, cell-based; details: 786-0, 48 h
SK-MEL-2 = assay: Growth inhibition of human SK-MEL-2 cells at 10 uM; type: functional; details: read-out: GI
Trachea [10] = assay: Inhibition of egg albumin antigen challenge-induced contraction response in methacholine-primed guinea pig trachea at 3 ug/ml; type: functional; details: Cavia porcellus
PBMC = assay: Inhibition of anti-CD3 induced human PBMC proliferation at 1 ug/ml; type: functional
COLO 205 = assay: Cytotoxicity against human COLO205 cells assessed as cell growth inhibition after 48 hrs by SRB assay; type: functional, cell-based; details: COLO 205, 48 h
RXF 393 = assay: Cytotoxicity against human RXF393 cells assessed as cell growth inhibition after 48 hrs by SRB assay; type: functional, cell-based; details: RXF 393, 48 h
ACHN = assay: Cytotoxicity against human ACHN cells assessed as cell growth inhibition after 48 hrs by SRB assay; type: functional, cell-based
HL-60 = assay: Cytotoxicity against human HL60 cells assessed as cell growth inhibition after 48 hrs by SRB assay; type: functional, cell-based; details: HL-60, 48 h
Hs-578T = assay: Cytotoxicity against human Hs578T cells assessed as cell growth inhibition after 48 hrs by SRB assay; type: functional, cell-based
M14 = assay: Cytotoxicity against human M14 cells assessed as cell growth inhibition after 48 hrs by SRB assay; type: functional, cell-based; details: M14, 48 h
SF-539 = assay: Cytotoxicity against human SF539 cells assessed as cell growth inhibition after 48 hrs by SRB assay; type: functional, cell-based; details: SF-539, 48 h
SNB-19 = assay: Cytotoxicity against human SNB19 cells assessed as cell growth inhibition after 48 hrs by SRB assay; type: functional, cell-based; details: SNB-19, 48 h
OVCAR-8 = assay: Cytotoxicity against human OVCAR8 cells assessed as cell growth inhibition after 48 hrs by SRB assay; type: functional, cell-based; details: OVCAR-8, 48 h
HOP-62 = assay: Cytotoxicity against human HOP62 cells assessed as cell growth inhibition after 48 hrs by SRB assay; type: functional, cell-based; details: HOP-62, 48 h
Liver = assay: Antioxidant activity in rat liver microsomal membranes assessed as inhibition of Fe(2+)/ascorbate-induced lipid peroxidation; type: functional, microsomes, microsome
[11] = tested on: Mycobacterium tuberculosis; assay: Antitubercular activity against Mycobacterium tuberculosis H37Rv; type: functional
[12] = tested on: Mycobacterium tuberculosis; assay: Antitubercular activity against Mycobacterium tuberculosis H37Rv assessed as inhibition of bacterial growth at 6.25 ug/ml; type: functional; details: read-out: GI
MCF7 [13] = assay: Cytotoxicity against human MCF7 cells assessed as inhibition of cell growth after 72 hrs by SRB assay; type: functional, cell-based; details: MCF7, 72 h
HCT-116 [14] = assay: Cytotoxicity against human HCT116 cells assessed as inhibition of cell growth after 72 hrs by SRB assay; type: functional, cell-based; details: HCT-116, 72 h
PC-3 [15] = assay: Cytotoxicity against human PC3 cells assessed as inhibition of cell growth after 72 hrs by SRB assay; type: functional, cell-based; details: PC-3, 72 h
HepG2 = assay: cells; details: Homo sapiens, HepG2, 72 h
Description: Cytotoxicity against human HepG2 cells assessed as inhibition of cell growth after 72 hrs by SRB assay

OVCAR-3 = assay: Cytotoxicity against human OVCAR3 cells assessed as cell growth inhibition after 48 hrs by SRB assay; type: functional, cell-based; details: OVCAR-3, 48 h
Malme-3M = assay: Cytotoxicity against human MALME-3M cells assessed as cell growth inhibition after 48 hrs by SRB assay; type: functional, cell-based
MCF7 [16] = assay: Cytotoxicity against human MCF7 cells assessed as cell growth inhibition after 48 hrs by SRB assay; type: functional, cell-based; details: MCF7, 48 h
SR = assay: Cytotoxicity against human SR cells assessed as cell growth inhibition after 48 hrs by SRB assay; type: functional, cell-based
SF-268 = assay: Cytotoxicity against human SF268 cells assessed as cell growth inhibition after 48 hrs by SRB assay; type: functional, cell-based; details: SF-268, 48 h

## CCSc1ncc2c(n1)N=c1c(Cl)c3c(c(Cl)c1S2)=Nc1nc(SCC)nc(O)c1S3
Escherichia coli
  MIC: 169 µg/mL (≈ 320 µM)
Aspergillus niger
  MIC: 138 µg/mL (≈ 262 µM)

## CCCCN1c2nc3ccccc3cc2Sc2cc3ccccc3nc21
MCF7 [1]
  inhibition of growth at 10 µM: 93%
T47D
  inhibition of growth at 10 µM: 86%
UO-31 [2]
  inhibition of growth at 10 µM: 78%

## c1ccc2c(c1)Nc1nccnc1S2
[3]
  IC50: 1 to 5 µg/mL (≈ 4.97 to 24.8 µM)
Trachea [4]
  inhibition at 10 µg/mL: 85%
Rattus norvegicus
  inhibition in vivo at 10 mg/kg: 70%

## CN1c2ccncc2Sc2ccncc21
UO-31 [5]
  inhibition of growth at 2.1 µg/mL: 60%
EKVX; read-out: GI
  inhibition of growth at 2.1 µg/mL: 51%

## CCN(c1cnc2sc3c4c(=O)c5c(O)c(C)c6c(c5c-3nc2c1)C(=O)[C@@](C)(O/C=C/[C@H](OC)[C@@H](C)[C@@H](OC(C)=O)[C@H](C)[C@H](O)[C@H](C)[C@@H](O)[C@@H](C)/C=C/C=C(/C)C(=O)N4)O6)C(C)C
[6]
  MIC: 0.005 µg/mL (≈ 0.00564 µM)

## O=[N+]([O-])c1ccc(N2c3ccncc3Sc3ccncc32)cc1
UO-31 [7]
  inhibition of growth at 3.2 µg/mL: 44%

## O=C(NCCCl)NCCN1c2nc3ccccc3cc2Sc2cc3ccccc3nc21
HCT-116 [8]
  IC50: 250 to 1000 nM
PC-3 [9]
  IC50: 250 to 1000 nM
SK-MEL-5
  IC50: 87 nM
CCRF-CEM
  IC50: 250 to 1000 nM
MOLT-4
  IC50: 250 to 1000 nM
SNB-75
  IC50: 250 to 1000 nM
SF-295
  IC50: 250 to 1000 nM
NCI-H460
  IC50: 250 to 1000 nM
HOP-92
  IC50: 250 to 1000 nM
IGROV-1
  IC50: 250 to 1000 nM
OVCAR-4
  IC50: 250 to 1000 nM
OVCAR-5
  IC50: 250 to 1000 nM
786-0
  IC50: 250 to 1000 nM

## c1ccc(N2c3nc4ccccc4cc3Sc3cc4ccccc4nc32)nc1
UO-31 [2]
  inhibition of growth at 10 µM: 57 to 73%
SK-MEL-2
  inhibition of growth at 10 µM: 61%

## COc1ccc2c(c1)Sc1nccnc1N2C
[3]
  IC50: 1 to 5 µg/mL (≈ 4.08 to 20.4 µM)
Trachea [10]
  inhibition at 3 µg/mL: 71%

## c1cc2c(cn1)Nc1ccncc1S2
PBMC
  inhibition at 1 µg/mL: 72%
COLO 205
  IC50: 2.4 µg/mL (≈ 11.9 µM)
HCT-116 [8]
  IC50: 3.6 µg/mL
RXF 393
  IC50: 3.1 µg/mL (≈ 15.4 µM)
ACHN
  IC50: 5.4 µg/mL (≈ 26.8 µM)
HL-60
  IC50: 4.1 µg/mL (≈ 20.4 µM)
Hs-578T
  IC50: 5.9 µg/mL (≈ 29.3 µM)
M14
  IC50: 6.5 µg/mL (≈ 32.3 µM)
SF-539
  IC50: 6.8 µg/mL (≈ 33.8 µM)
SNB-19
  IC50: 6.8 µg/mL (≈ 33.8 µM)
OVCAR-8
  IC50: 7.1 µg/mL (≈ 35.3 µM)
PC-3 [9]
  IC50: 8.4 µg/mL
HOP-92
  IC50: 1.7 µg/mL
786-0
  IC50: 3.9 µg/mL
HOP-62
  IC50: 0.3 µg/mL (≈ 1.49 µM)
Liver
  IC50: 64000 nM

## O=c1[nH]c2c(Cl)ccc(Cl)c2c2c1Sc1cc(Cl)ccc1N2
[11]
  MIC: > 6.25 µg/mL
[12]
  inhibition of growth at 6.25 µg/mL: 67%

## COc1ccc(-c2c3c(N)c4c(nc3nc3[nH]nc(-c5ccccc5)c23)Sc2ccccc2N4)cc1
MCF7 [13]
  IC50: 34500 to 36500 nM
HCT-116 [14]
  IC50: 34500 to 36500 nM
PC-3 [15]
  IC50: 34500 to 36500 nM
HepG2
  IC50: 19100 nM

## [Cl-].c1ccc2nc3c(cc2c1)Sc1cc2ccccc2[n+]2c1N3CC2
COLO 205
  IC50: 1.3 µg/mL
RXF 393
  IC50: 5 µg/mL
PC-3 [9]
  IC50: 10 µg/mL
SK-MEL-5
  IC50: 1.5 µg/mL
NCI-H460
  IC50: 7.4 µg/mL
EKVX
  IC50: 7.6 µg/mL
OVCAR-3
  IC50: 7.8 µg/mL
Malme-3M
  IC50: 1.3 µg/mL
MCF7 [16]
  IC50: 3.2 µg/mL
SR
  IC50: 4.9 µg/mL
SF-268
  IC50: 8.5 µg/mL
